Experiments:
Assay type in all cases: cell-based
IL-1β = assay: Inhibition of IL-1β secretion in LPS stimulated peripheral blood mononuclear cells; settings: PBMC; LPS stimulated human peripheral blood mononuclear cells, 18 hours, ELISA; read-out: The median inhibition concentration (IC50, nM) of IL-1β
Procedure: (§1) To study the effect of the compound of the present invention in vitro the inhibition of the IL-1β and TNF-α secretion was measured using the following procedure:
(§2) Cytokine production was measured in the media from lipopolysaccharide (LPS) stimulated peripheral blood mononuclear cells. The mononuclear cells were isolated from human. peripheral blood by Lymphoprep® (Nycomed, Norway) fractionation and suspended in RPMI 1640 (growth medium) with foetal calv serum (FCS, 2%), at a concentration of 5×10^5 cells/ml. The cells were incubated in 24-well tissue culture plates in 1 ml aliquots. Test compounds were dissolved in dimethylsulfoxide (DMSO, 10 mM) and were diluted with the medium. Compounds were added to the cells for 30 minutes, then LPS ([…] final concentration) was added. The plates were incubated for 18 hours, and the concentration of IL-1β and TNF-α in the medium was determined by enzyme-linked immunosorbent assays. The median inhibitory concentrations (IC50) of the compounds were calculated.

TNF-α = assay: Inhibition of TNF-α secretion in LPS stimulated peripheral blood mononuclear cells; settings: PBMC; LPS stimulated human peripheral blood mononuclear cells, 18 hours, ELISA; read-out: The median inhibition concentration (IC50, nM) of TNF-α
Procedure: as §1, §2

PMN-superoxide = assay: Inhibition of PMN superoxide secretion (ferricytochrome C reduction); settings: human PMN granulocytes primed with TNF-α, stimulated with fMLP; read-out: The median inhibition concentration (IC50, nM) of PMN-superoxide
Procedure: The compounds of the present invention also show similar activities in the ability to inhibit PMN (polymorphonuclear) superoxide secretion which is also indicative of potentially useful anti-inflammatory drugs The compounds were tested using the following procedure:
Human polymorphonuclear (PMN) granulocytes were Isolated from human blood by dextran sedimentation, Lymphoprep® fractionation and hypotonic lysis of contaminating erythrocytes.
Superoxide anion generation was measured as the superoxide dismutase inhibitable reduction of ferricytochrome C (Madhu, S. B. et al, Inflammation, 16 241, (1992)). The cells were suspended in Hanks' balanced salt solution, and incubated for 10 minutes at 37° C. with test compounds. The cells were primed by the addition of TNF-α (3 ng/ml final concentration) for 10 minutes, and then ferricytochrome C, (final concentration 750 μg/ml), bovine serum albumin (BSA, final concentration 1 mg/ml) and formyl-methionyl-leucyl-phenylalanine (fMLP, final concentration 10^−7 M) were added for 3 minutes. The cells were chilled on ice, and were spun down. The optical densities in the cell-free supernatant was measured in a spectrophotometer. The median Inhibitory concentration (IC50) of the compounds was calculated.

Question: What does the source list for `Cc1ccccc1C(=O)c1ccc(Nc2ccccc2NC(=O)NC2CCCCC2)cc1Cl` [Compound 101, 1-Cyclohexyl-3-[2-[3-chloro-4-(2-methylbenzoyl)-phenylamino]phenyl]urea]?
Answer: IC50 (IL-1β): 13 nM; IC50 (TNF-α): 5 nM; IC50 (PMN-superoxide): 4 nM

Question: Which IC50 (IL-1β) does the source give for `CCNC(=O)Nc1ccccc1Nc1ccc(C(=O)c2ccccc2C)c(Cl)c1` [Compound 102, 1-Ethyl-3-[2-[3-chloro-4-(2-methylbenzoyl)-phenylamino]phenyl]urea] here?
Answer: 22 nM

Question: And the IC50 (TNF-α)?
Answer: 2.2 nM

Question: And the IC50 (PMN-superoxide)?
Answer: 13 nM

Question: Which IC50 (IL-1β) does the source give for `CCNC(=O)Nc1cc(F)ccc1Nc1ccc(C(=O)c2ccccc2C)c(Cl)c1` [Compound 114, 1-Ethyl-3-[2-[3-chloro-4-(2-methylbenzoyl)-phenylamino]-5-fluoro-phenyl]urea] here?
Answer: 7.9 nM

Question: What about the IC50 (TNF-α) of the same compound?
Answer: 3.2 nM

Question: And the IC50 (PMN-superoxide)?
Answer: 4 nM

Question: With `CCNC(=O)Nc1ccccc1Nc1ccc(C(=O)c2ccccc2)cc1` [ref. b), 1-Ethyl-3-[2-(4-benzoyl-phenylamino)phenyl]urea, reference compound] as the compound, how does the IC50 (IL-1β) read?
Answer: > 1000 nM

Question: What about the IC50 (TNF-α) of the same compound?
Answer: 631 nM

Question: What about the IC50 (PMN-superoxide) of the same compound?
Answer: 316 nM

Source: patent publication US6750253B1, “Aminobenzophenones as inhibitors of il-1β and tnf-α” (Leo Pharmaceutical Products Ltd. A/S, priority 1999, dated 2004)
